One assay concerns the target T1, SHP2 (Homo sapiens, UniProt Q06124).
T1 construct: Homogeneous Full Length SHP-2 Assay Kit (purchased from BPS Bioscience); purchased BPS Bioscience
T1 sequence (Q06124 1-593): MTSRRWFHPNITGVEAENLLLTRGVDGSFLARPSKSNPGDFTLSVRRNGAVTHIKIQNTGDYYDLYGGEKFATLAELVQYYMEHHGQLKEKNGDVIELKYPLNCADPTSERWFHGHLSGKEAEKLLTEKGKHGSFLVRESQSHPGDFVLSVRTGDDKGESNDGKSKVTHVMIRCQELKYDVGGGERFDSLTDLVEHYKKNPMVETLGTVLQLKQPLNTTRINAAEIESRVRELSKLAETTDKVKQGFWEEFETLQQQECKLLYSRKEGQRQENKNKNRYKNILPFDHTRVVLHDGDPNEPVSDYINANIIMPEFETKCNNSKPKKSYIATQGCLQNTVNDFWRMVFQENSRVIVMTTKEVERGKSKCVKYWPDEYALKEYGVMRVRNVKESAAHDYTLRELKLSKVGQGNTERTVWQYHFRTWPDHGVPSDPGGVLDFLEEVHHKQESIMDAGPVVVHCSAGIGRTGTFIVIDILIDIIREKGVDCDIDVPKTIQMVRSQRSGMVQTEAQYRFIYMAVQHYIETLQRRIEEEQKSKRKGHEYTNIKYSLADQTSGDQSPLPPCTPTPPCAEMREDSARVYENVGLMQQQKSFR
The assay is described as follows: SHP2 in-vitro enzymology experiment (Homogeneous Full Length SHP-2 Assay Kit, DiFMUP substrate). To be noted: 60 min pre-incubation, 30 min reaction at 25° C. The format is biochemical. The procedure:
Experimental materials: Homogeneous Full Length SHP-2 Assay Kit (purchased from BPS Bioscience) and NIVO multimode microplate reader.
Preparation of 1× buffer (ready-to-use): 5× buffer was diluted with deionized water to give 1× buffer, which was then placed on ice for later use.
Each test compound was diluted with 100% DMSO to 100 μM as the first concentration, and then diluted in a 4-fold gradient to the 8th concentration (i.e., from 100 μM to 6.1 nM) using a multi-channel pipette. Each gradient of the test compound was diluted with 1× buffer to prepare a working solution with 10% DMSO. The resulting solution was then added to the corresponding wells of a plate at 5 μL/well, with duplicate wells set up. The plate was then centrifuged at 1000 rpm for 1 min.
18 μL of a prepared reaction mixed solution (containing 12.25 μL of deionized water, 5 μL of 5× buffer; 0.25 μL of SHP-2 substrate polypeptide (100 μM), and 0.5 μL of DTT (250 mM)) was added to each well. The plate was then centrifuged at 1000 rpm for 1 min.
An SHP-2 enzyme was diluted to 0.1 ng/μL with 1× buffer. The resulting solution was added to the corresponding wells at 2 μL/well, and 2 μL of 1× buffer and […] were added to each negative control well. This step was performed on ice. The reaction system was then incubated at 25° C. for 60 min for compound pre-incubation.
After the compound pre-incubation was completed, 25 μL of a substrate working solution (containing 19.45 μL of deionized water, 5 μL of 5× buffer; 0.5 μL of DTT (250 mM), and 0.05 μL of SHP-2 Substrate (DiFMUP) (10 mM)) was added to each well, and the reaction system was allowed to react at 25° C. for 30 min. At that time, the final concentration gradient of the compound ranged from 1 μM to 0.061 nM. After the reaction was completed, the fluorescence values were read using the NIVO multimode microplate reader, with an excitation wavelength of 360 nm and an emission wavelength of 460 nm.
Detection of compound background reading values: Each gradient of the test compound diluted with 100% DMSO was added to a new compound plate at 5 μL/well, and then 1× buffer was added at 45 μL/well to achieve a 10-fold dilution to prepare a working solution with 10% DMSO. Next, the compound working solution was added to the detection plate at 5 μL/well, and then 1× buffer was added at 45 μL/well to achieve another 10-fold dilution, bringing the final concentration of DMSO to 1%. The plate was then centrifuged at 1000 rpm for 1 min. The fluorescence values were read using the multimode microplate reader, with an excitation wavelength of 360 nm and an emission wavelength of 460 nm.
The original data were converted to inhibition rates and the IC50 values were obtained by curve fitting using a four-parameter method.

In assay [1] the test system is H358 cells (NCIH358_LUNG). The assay is described as follows: Anti-proliferation experiment on tumor cells with KRAS mutations, H358 (3D CellTiter-Glo). To be noted: Homo sapiens, NCI-H358, 120 h, 5 days incubation with compound, ultra-low attachment plate. The format is cell-based. The source says: (§1) Cell culture medium, penicillin/streptomycin antibiotics purchased from Wisent, and fetal bovine serum purchased from Biosera; 3D CellTiter-Glo (chemiluminescence detection reagent for cell viability) reagent purchased from Promega; Cell lines purchased from Nanjing Cobioer Biosciences Co., Ltd. and Wuhan Procell Life Science & Technology Co., Ltd; and Envision multimode microplate reader (PerkinElmer).
(§2) Different types of tumor cells were each seeded in an ultra-low attachment 96-well U-bottom plate, with 80 μL of cell suspension per well. The cell plate was incubated in a CO2 incubator overnight.
(§3) Each test compound was diluted in a 5-fold gradient to the 9th concentration (i.e., from 2 mM to 5.12 nM or from 200 μM to 0.512 nM) using a multi-channel pipette, with duplicate wells set up. 78 μL of medium was added to an intermediate plate, and the serially diluted compound was transferred to the corresponding wells of the intermediate plate at 2 μL/well. The mixture was mixed well and then transferred to the cell plate at 20 µL/well. The concentration of the compound transferred to the cell plate ranged from 10 μM to 0.0256 nM or from 1 μM to 0.00256 nM. The cell plate was then incubated in a CO2 incubator for 3-6 days.
(§4) The chemiluminescence detection reagent for cell viability was added to the cell plate at 100 μL/well, and the luminescence signals were stabilized by incubation for 10 min at room temperature. Readings were taken using the multimode microplate reader.
(§5) The original data were converted to inhibition rates and then the IC50 values were obtained by curve fitting using a four-parameter method (obtained from the “log(inhibitor) vs. response—Variable slope” model in GraphPad Prism). Table 2 illustrates the inhibitory activity of the compounds disclosed herein against the proliferation of different types of tumor cells.

Assay [2] relates to MiaPaCa-2 cells (MIAPACA2_PANCREAS). In words: Anti-proliferation experiment on tumor cells with KRAS mutations, MiaPaCa-2 (3D CellTiter-Glo). Type of assay: cell-based. The note with it: Homo sapiens, MIA PaCa-2, 72 h, 3 days incubation with compound, ultra-low attachment plate.
Source text: as §1, §2, §3, §4, §5
Background: In ATP-based viability assays light output follows the ATP content of the culture.

The test system of assay [3] is ERK phosphorylation in H358 cells. In words: Inhibitory activity against ERK phosphorylation in H358 cells (HTRF Phospho-ERK1/2 kit). Type of assay: cell-based. The note with it: Homo sapiens, NCI-H358; starved H358 cells, 1 h compound incubation; read-out: H358 cell ERK phosphorylation IC50. The procedure: H358 cells purchased from Nanjing Cobioer Biosciences Co., Ltd., 1640 medium purchased from Biological industries, fetal bovine serum purchased from Biosera, and Advanced Phospho-ERK1/2 (THR202/TYR204) KIT purchased from Cisbio.
• 1. H358 cells were plated in a transparent 96-well cell culture plate, with 80 μL of cell suspension per well, each well containing 10000 H358 cells. The cell plate was incubated in a CO2 incubator at 37° C. overnight. • 2. The cell supernatant was discarded, and a starvation medium (1640+0.02% fetal bovine serum+1% […]) was added at 80 μL/well. The cell plate was then incubated in a CO2 incubator for cell starvation treatment overnight; • 3. Each test compound was diluted with 100% DMSO to 4 mM as the first concentration, and then diluted in a 5-fold gradient to the 8th concentration (i.e., from 4 mM to […]) using a pipette. 1 μL of the compound was then added to 79 μL of cell starvation medium. The mixture was mixed well, and then the compound solution was added to the corresponding wells of the cell plate at 20 μL/well. The cell plate was then put back to the CO2 incubator for incubation for another 1 h. At that time, the concentration of the compound ranged from 10 μM to 0.0256 nM, with the concentration of DMSO being 0.25%. • 4. After the incubation was completed, the cell supernatant was discarded, and a cell lysis buffer was added at 50 μL/well. The plate was then incubated with shaking at room temperature for 30 min. 5. The Phospho-ERK1/2 Eu Cryptate antibody and Phospho-ERK1/2 d2 antibody were diluted in a 20-fold gradient with the Detection buffer. • 6. 16 μL of the cell lysate supernatant from each well was transferred to a new 384-well white microplate, and then 2 μL of the Phospho-ERK1/2 Eu Cryptate antibody dilution and 2 μL of the Phospho-ERK1/2 d2 antibody dilution were added to each well. The mixture was incubated at room temperature for 4 h. • 7. After the incubation was completed, HTRF values were read using a multimode microplate reader, with an excitation wavelength of 320 nm and emission wavelengths of 615 nm and 665 nm.
The original data were converted to inhibition rates and then the IC50 values were obtained by curve fitting using a four-parameter method.

Regarding `Cc1nc(N2CCC3(CC2)Cn2nccc2C3N)c(CO)nc1Sc1cccc(Cl)c1Cl` (stereo not drawn) [Compound 3], the IC50 against SHP2 was determined as 2.28 nM; in assay [1], 62.1 nM; in assay [2], 35 nM; in assay [3], 55.6 nM.

For `Cc1nc(N2CCC3(CC2)Cn2nccc2C3N)c(C(N)=O)nc1Sc1ccnc(N)c1Cl` (stereo not drawn) [Compound 5], the IC50 against SHP2 came to 3.24 nM; in assay [1], 43.1 nM; in assay [2], 48.5 nM; in assay [3] it was 45.3 nM.

On SHP2, `CONc1nccc(Sc2nc(CO)c(N3CCC4(CC3)Cn3nccc3C4N)nc2C)c1Cl` (stereo not drawn) [Compound 8] gave an IC50 of 3.99 nM.

On to `Cc1nc(Sc2ccnc(N)c2Cl)cnc1N1CCC2(CC1)Cn1nccc1C2N` (stereo not drawn) [Compound 10], for which the IC50 against SHP2 is 1.09 nM; in assay [1], 38.9 nM; in assay [2], 19.3 nM.

As usually defined, the IC50 is the midpoint of a concentration-inhibition curve.

(Values after patent US20240409543A1, “PYRROLOPYRAZOLE SPIRO COMPOUND” (CHIA TAI TIANQING PHARMACEUTICAL GROUP CO., LTD., priority 2021, published 2024).)
